Data: ChEMBL document CHEMBL1201862, “PubChem BioAssay data set” (2004)
The source made the active and inactive calls.

Assays:
Cytochrome P450 2C19 = Cytochrome P450 2C19 (Homo sapiens, UniProt P33261); assay: Cytochrome panel assay with activity outcomes. Panel member name: p450-cyp2c19 Compounds with AC50 equal or less than 10 uM are considered active; format: functional
Cytochrome P450 2D6 = Cytochrome P450 2D6 (Homo sapiens, UniProt P10635);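 also: CYP2D6 member of a cytochrome P450 panel assay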
Chain of Cytochrome P450 2D6 (P10635 whole entry): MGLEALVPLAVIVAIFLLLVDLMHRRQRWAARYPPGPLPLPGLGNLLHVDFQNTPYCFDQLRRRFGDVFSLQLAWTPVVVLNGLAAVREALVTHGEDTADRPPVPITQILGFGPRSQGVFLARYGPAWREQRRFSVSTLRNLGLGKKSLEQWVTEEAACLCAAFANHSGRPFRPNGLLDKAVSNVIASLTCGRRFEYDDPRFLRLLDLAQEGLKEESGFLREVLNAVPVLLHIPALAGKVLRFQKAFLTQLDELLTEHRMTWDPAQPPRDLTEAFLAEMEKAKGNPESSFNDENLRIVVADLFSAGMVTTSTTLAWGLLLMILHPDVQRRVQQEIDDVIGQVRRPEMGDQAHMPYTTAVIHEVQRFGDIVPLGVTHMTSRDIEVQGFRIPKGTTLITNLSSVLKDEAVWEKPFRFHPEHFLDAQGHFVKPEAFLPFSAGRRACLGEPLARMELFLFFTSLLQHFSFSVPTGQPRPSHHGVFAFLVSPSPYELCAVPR

Cytochrome P450 1A2 = target: T1, Cytochrome P450 1A2 (Homo sapiens, UniProt P05177);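 also: PubChem cytochrome P450 panel assay, CYP1A2 panel member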
T1 sequence (P05177 whole entry): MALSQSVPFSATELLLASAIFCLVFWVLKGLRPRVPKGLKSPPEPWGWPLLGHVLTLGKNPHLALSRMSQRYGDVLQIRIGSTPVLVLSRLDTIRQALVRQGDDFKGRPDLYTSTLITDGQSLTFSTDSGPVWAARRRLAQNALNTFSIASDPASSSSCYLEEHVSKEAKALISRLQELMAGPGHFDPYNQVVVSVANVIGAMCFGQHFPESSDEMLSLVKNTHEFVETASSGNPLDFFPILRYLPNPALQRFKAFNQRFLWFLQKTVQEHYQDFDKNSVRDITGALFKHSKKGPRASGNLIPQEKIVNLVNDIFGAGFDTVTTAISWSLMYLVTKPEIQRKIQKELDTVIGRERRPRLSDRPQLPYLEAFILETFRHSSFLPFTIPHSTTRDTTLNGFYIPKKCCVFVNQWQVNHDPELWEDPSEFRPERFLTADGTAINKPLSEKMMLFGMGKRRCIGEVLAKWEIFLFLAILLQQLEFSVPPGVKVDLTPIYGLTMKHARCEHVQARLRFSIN

BJ [1] = assay: cells; format: functional, cell-based; conditions: Homo sapiens
[2] = alpha-synuclein stem-loop luciferase translation blockers – H4 neuroglioma cells, luminescence, confirmation (AID 1988); format: functional, cell-based
[3] = DRD fibroblast viability loss – cell-based, non-viral oncogenic, luminescence, dose response (AID 1934); format: functional; conditions: Homo sapiens
BJ [4] = assay: BJ-TERT-LT-ST fibroblast viability loss – cell-based, RAS-independent, luminescence, dose response (AID 1935); format: functional; conditions: Homo sapiens;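 also: BJ fibroblasts immortalized with TERT plus LT and ST oncogenes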
[5] = luciferase reporter signal suppression in cells – H4 neuroglioma cells, luminescence, dose response (AID 1990); format: functional, cell-based
[6] = Luminescence Cell-Based Dose Response HTS to Identify Inhibitors of 5'UTR Stem-Loop Driven Prion Protein mRNA Translation in H4 Neuroglioblastoma Cells. [Related pubchem assays: 1827 (Project Summary), 1813 (Primary HTS)]; format: functional
BJ [7] = assay: growth inhibition of engineered Ras-driven BJ cells – cell-based, alamar blue fluorescence, cherrypicked samples, dose response (AID 2631); format: functional; conditions: Homo sapiens;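 also: confirmatory dose-response assay in RAS-dependent BJ fibroblasts engineered with TERT, LT and ST, with cytotoxicity read by fluorescence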
[8] = Luminescence Cell-Based Dose Retest to Confirm Inhibitors of Cancer Stem Cells. [Related pubchem assays (depositor defined):AID2717, AID2721]; format: functional; conditions: Homo sapiens
BJ [9] = assay: BJ-TERT fibroblast viability loss – cell-based, RAS-independent, luminescence, dose response (AID 1933); format: functional; conditions: Homo sapiens
Cytochrome P450 2C9 [10] = target: T2, Cytochrome P450 2C9 (Homo sapiens, UniProt P11712)
T2 sequence (P11712 whole entry): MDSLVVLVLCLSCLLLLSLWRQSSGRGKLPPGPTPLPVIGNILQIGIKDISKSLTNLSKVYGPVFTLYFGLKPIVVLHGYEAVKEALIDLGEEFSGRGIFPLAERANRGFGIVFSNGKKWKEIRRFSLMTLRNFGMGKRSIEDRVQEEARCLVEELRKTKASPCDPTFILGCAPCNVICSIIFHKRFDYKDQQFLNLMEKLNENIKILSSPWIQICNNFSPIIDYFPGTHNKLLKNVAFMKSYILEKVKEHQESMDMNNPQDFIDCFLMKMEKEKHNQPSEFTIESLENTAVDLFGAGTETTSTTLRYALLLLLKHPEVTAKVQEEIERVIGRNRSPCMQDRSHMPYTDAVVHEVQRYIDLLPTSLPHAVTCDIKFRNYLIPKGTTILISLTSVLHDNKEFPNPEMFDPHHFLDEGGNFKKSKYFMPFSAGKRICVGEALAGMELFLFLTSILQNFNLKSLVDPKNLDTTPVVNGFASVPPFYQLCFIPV

Cytochrome P450 3A4 = Cytochrome P450 3A4 (Homo sapiens, UniProt P08684);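 also: CYP3A4 tested as one member of a cytochrome P450 panel screen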
Chain of Cytochrome P450 3A4 (P08684 whole entry): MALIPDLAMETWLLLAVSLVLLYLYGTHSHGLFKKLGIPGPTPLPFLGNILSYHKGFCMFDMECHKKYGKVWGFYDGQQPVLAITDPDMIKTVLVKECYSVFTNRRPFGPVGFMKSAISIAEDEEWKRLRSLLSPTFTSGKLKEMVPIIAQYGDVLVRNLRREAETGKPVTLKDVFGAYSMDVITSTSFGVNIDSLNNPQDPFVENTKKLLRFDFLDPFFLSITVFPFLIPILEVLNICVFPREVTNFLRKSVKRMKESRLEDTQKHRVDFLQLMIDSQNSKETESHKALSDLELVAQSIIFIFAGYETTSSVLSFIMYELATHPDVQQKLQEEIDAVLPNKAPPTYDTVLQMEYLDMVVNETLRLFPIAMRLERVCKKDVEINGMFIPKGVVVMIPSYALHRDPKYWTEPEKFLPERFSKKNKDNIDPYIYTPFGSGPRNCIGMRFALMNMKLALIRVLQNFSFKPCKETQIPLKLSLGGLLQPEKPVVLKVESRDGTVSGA

Cytochrome P450 2C9 [11] = target: T2, Cytochrome P450 2C9; remark: listed apart in the source
[12] = reduction of Shn3 3'UTR-driven luciferase in osteoblasts – cell-based, Clone20 osteoblasts, firefly luciferase, cherry-picked, dose response (AID 624132); format: functional;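 also: firefly luciferase luminescence from reporter carrying the Shn3 3'UTR in osteoblasts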
Protein Wnt-3a = Protein Wnt-3a (Mus musculus, UniProt P27467); assay: antagonism of Wnt3a pathway luciferase reporter – Wnt-LIGHT cells, luminescence, selectivity assay for Gli-SUFU antagonist project, dose response (AID 651570); format: functional; conditions: read-out: IC50_Mean;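 also: Wnt-LIGHT reporter cells stimulated with conditioned medium from Wnt3a-producing cells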
Chain of Protein Wnt-3a (P27467 whole entry): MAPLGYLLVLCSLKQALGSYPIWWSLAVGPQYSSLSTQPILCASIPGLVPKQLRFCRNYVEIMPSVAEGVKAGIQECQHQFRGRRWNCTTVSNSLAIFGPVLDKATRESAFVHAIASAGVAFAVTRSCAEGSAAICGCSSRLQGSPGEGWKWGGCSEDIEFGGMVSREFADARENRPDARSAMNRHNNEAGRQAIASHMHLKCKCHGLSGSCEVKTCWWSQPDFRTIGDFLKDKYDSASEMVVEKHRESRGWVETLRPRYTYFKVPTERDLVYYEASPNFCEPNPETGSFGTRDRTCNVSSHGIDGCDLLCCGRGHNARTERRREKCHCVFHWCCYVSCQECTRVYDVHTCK

[13] = non-specific 3'UTR reporter inhibition in Clone20-Shn3RL – cell-based, Renilla luciferase, cherry-picked, counter-screen for Shn3 inhibitor project, dose response (AID 624133); format: functional

Chain of Cytochrome P450 2C19 (P33261 whole entry): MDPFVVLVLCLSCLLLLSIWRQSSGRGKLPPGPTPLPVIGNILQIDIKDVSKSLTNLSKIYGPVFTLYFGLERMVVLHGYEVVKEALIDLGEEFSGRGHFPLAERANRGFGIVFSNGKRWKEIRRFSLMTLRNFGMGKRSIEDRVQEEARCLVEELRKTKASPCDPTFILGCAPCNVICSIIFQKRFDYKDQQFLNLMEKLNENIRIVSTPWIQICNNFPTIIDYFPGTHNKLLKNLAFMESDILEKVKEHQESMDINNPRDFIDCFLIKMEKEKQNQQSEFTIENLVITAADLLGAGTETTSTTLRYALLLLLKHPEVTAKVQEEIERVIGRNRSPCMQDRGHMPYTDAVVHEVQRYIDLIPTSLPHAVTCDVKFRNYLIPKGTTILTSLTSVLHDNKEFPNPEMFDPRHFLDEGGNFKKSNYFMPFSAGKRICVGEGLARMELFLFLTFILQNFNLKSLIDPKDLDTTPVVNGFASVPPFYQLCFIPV

Cc1cc(C)nc(Nc2n[nH]c(COc3ccc4ccccc4c3)n2)n1
AC50 (Cytochrome P450 2C19; read-out: AC50): 17.8 µM (inconclusive) | AC50 (Cytochrome P450 2D6): inconclusive | AC50 (Cytochrome P450 1A2): 1.12 µM (inconclusive)

O=Cc1cc2ccccc2nc1SCc1ccc(Cl)cc1
EC50 (BJ [1]): 0.699 µM (active) | EC50 [2]: 0.724 µM (active) | EC50 [3]: 1.1 µM (active) | EC50 (BJ [4]): 0.434 µM (active) | EC50 [5]: 9.87 µM (active) | EC50 [6]: 0.745 µM (active) | EC50 (BJ [7]): 0.134 µM (active) | AC50 [8]: 3.66 µM (active) | EC50 (BJ [9]): 0.635 µM (active)

CCOC(=O)C(Sc1ncnc2c1sc1nc(N3CCOCC3)c3c(c12)CCCC3)c1ccccc1 (stereo unspecified)
AC50 (Cytochrome P450 2C9 [10]): 0.316 µM (inconclusive) | AC50 (Cytochrome P450 3A4): inconclusive | AC50 (Cytochrome P450 2C19; read-out: AC50): 10 µM (inconclusive)

CS(=O)(=O)N1CCC2(CCN(C(c3ccccc3)c3ccccc3)CC2)CC1
AC50 (Cytochrome P450 3A4): inconclusive

COc1ccccc1CN1CC2(CCN(S(=O)(=O)c3ccccc3)CC2)C1
AC50 (Cytochrome P450 2C19): inconclusive | AC50 (Cytochrome P450 2D6): inconclusive | AC50 (Cytochrome P450 2C9 [11]): inconclusive

Cn1cccc1C(=O)N1CCC2(CC1)CCN(c1ccc(-c3ccccc3)cc1)CC2
AC50 (Cytochrome P450 3A4): inconclusive | AC50 (Cytochrome P450 1A2): 20 µM (inconclusive)

Cc1nn(Cc2noc(C(=O)NC3CCC(C)CC3)n2)c(C)c1Br (stereo unspecified)
AC50 [12]: 3.28 µM (active) | IC50 (Protein Wnt-3a): 4.35 µM (active) | AC50 [13]: 6.78 µM (active)

CN1CCN(c2ncc3nc(-c4ccc(F)cc4)c(=O)n(C4CC4)c3n2)CC1
AC50 (Cytochrome P450 3A4): inconclusive | AC50 (Cytochrome P450 2C19; read-out: AC50): 25.1 µM (inconclusive)
